Test system: Human erythromyeloblastoid leukemia cell line K562 (target cells of NK cells)
Test: Activity of NK cells against pre-treated K562 target cells, by flow cytometer (PKH67-GL / PI)
Assay type: cell-based
Conditions: K562 target cells treated with 10 nM rapamycin alone for 48 hours; effector:target 25:1, 16 hours co-culture
Protocol: Select Human erythromyeloblastoid leukemia cell line K562 as target cells and culture it by tissue culture technique in RPMI 1640 supplemented with 10% FBS to a proper amount. And then, take a suspension containing 1×10^6 cells and inoculate it in a 6-wells plate. […] And then, put the plate into a 37° C. incubator to continue culturing for 48 hours.
Use 1 mM of green fluorescent cell linker dye PKH67-GL(Sigma-Aldrich), which resolves in alcohol, to label the aforementioned cells. The detail steps are: resuspend 1×10^6 cells in 1 ml of Diluent C(Sigma-Aldrich), add PKH67-GL until the density reaches 4×10^−6 M and dye for 4 minutes under 25 °C. Add 1 ml FBS and 2 ml complete medium to end the coloring reaction, then wash it with PBS for three times. And then, dilute the amount of cells in a complete medium until it reaches 2.5×10^5 cells per ml and confirm the labeling and activity of cells by a Flow cytometer.
Dilute the amount of NK cells (the effector cell of the present Experimental Example) to 6.25×10^6 per ml. Mix 100 μl of the aforementioned diluted cell solution with 100 μl of the target cell solution so that the ratio of effector cells and target cells reaches 25:1. Put the mixed cells in a cell culture and culture for 16 hours in a 37□ incubator with 5% CO2. […]

Question: With `CO[C@H]1C[C@@H]2CC[C@@H](C)[C@@](O)(O2)C(=O)C(=O)N2CCCC[C@H]2C(=O)O[C@H]([C@H](C)C[C@@H]2CC[C@@H](O)[C@H](OC)C2)CC(=O)[C@H](C)/C=C(\C)[C@@H](O)[C@@H](OC)C(=O)[C@H](C)C[C@H](C)/C=C/C=C/C=C/1C` [rapamycin] as the molecule, how does the “activity ratio of NK cells, increase over Control” value read?
Answer: 15%

From patent US20120214834A1, “IMMUNE ENHANCEMENT COMPOSITION AND KIT AND USE THEREOF” (priority 2011, published 2012)
